This is an account of results in patent US20160022762A1, “Agent for Eliminating Multidrug Resistance” (priority 2008, published 2016).

Series [1] deals with stage III cervical carcinoma. The series can be described thus: clinical case, chemoradiotherapy with hexapeptide (Example 5). It counts as in vivo, human. Here is the method: Patient. Clinical diagnosis: stage III cervical carcinoma (T3NX-1M0). Examination of the patient included clinical and laboratory assessment both at admission and during treatment. […] general condition was of moderate severity. […] The percentage of CD3, CD4, CD8, CD16-positive cells was decreased relative to the average statistical normal values 2-fold. The person prior to antineoplastic treatment had received a course of 5-time administration of the hexapeptide in the form of 1 ml of 0.005% solution subcutaneously daily for 5 days. Chemoradiotherapy was carried out according to the regimen: 500 mg of 5-fluorouracil (total dose 2,500 mg). During the whole course of chemoradiotherapy, the person received 1 ml of 0.005% solution of the hexapeptide (biopoetin) 5 times daily. Two days after discontinuation of 5-fluorouracil, the patient underwent remote irradiation at a single dose of 4 Gy on the background of intravenous administration of 30 mg of cysplastin for 3 days (total dose of cysplastin amounting to 90 mg). Then radiotherapy was continued in the mode of a daily multifractionated dose. Irradiation was carried out up to a focal dose of 20 Gy onto the area of the primary focus and zones of regional metastatic spreading, followed by additional intracavitary gamma-therapy (10 fractions 5 Gy each) and remote irradiation was continued onto the zones of parametrial metastatic spreading up to the total dose amounting to 44 Gy.

Series [2] in a line: solubility of the active principle. The series is classed as physicochemical.
In series [3] the test system is squamous-cell oesophageal cancer. It counts as in vivo, human. Here is the method: The disease was manifested by retrosternal pain, weakness, weight loss. […] Prior to chemoradiotherapy, the patient was given the hexapeptide in the form of a suppository at a dose of 5 mg five times daily for 5 days. The first stage of combined-modality treatment consisted of two courses of polychemotherapy. During the whole period of chemoradiotherapy, the patient received treatment with the proposed agent in the form of rectal suppositories 5 μg twice daily (in the morning and evening).

In series [4] the target is T1, MRP (Mus musculus, UniProt O35379). Put plainly: calcein formation rate in R388VR cells in the presence of Co2+ (extracellular calcein quenching). The conditions noted are these: presence of Co, 12 μM.
For series [5] the following is noted: in vivo.
Series [6] is described as follows: preclinical and clinical studies: toxic reaction and side effects. It counts as in vivo.
The subject of the next series is P-gp. The series can be described thus: calcein formation rate from calcein AM in R388VR cells without Co2+. The conditions noted are these: up to 1.2 μM.
A short description of the next series: local irritating effect. The note with it: in vivo.
For series [7], the system named is multidrug resistance proteins in the Hep-2 cells. The series can be described thus: calcein formation rate in Hep-2 cells with Co2+ ions. The series is classed as cell-based, human. On the set-up: calcein formation rate increment ratio: dose or concentration left out as unconfirmed. The note with it: Co2+ ions present.
Series [8] concerns the target T1, MRP. The series can be described thus: calcein efflux rate from preliminarily calcein-loaded R388VR cells.
For series [9], the system named is human laryngeal cancer cells Hep-2. Put plainly: survival of Hep-2 cells exposed to arsenate (crystal violet). The series is classed as cell-based. As to the method:
The human laryngeal cancer cells Hep-2 in Dulbecco's modified Eagle's medium (hereinafter referred to as DMEM) (Sigma) supplemented with 10% foetal calf serum (Sigma) and 40 μg/ml of gentamycin (Sigma) were sown in a 96-well culture plate, 0.1 ml per well, at a concentration of 50,000/ml, followed by adding the agents being examined and incubating for 72 hour at 37° C. in an atmosphere of 5% CO2 in air. After incubation, the cells were stained with 0.02% crystal violet solution (Sigma) in 20% ethanol for 10 minutes followed by discarding the stainer solution, washing the cells with water and adding a 0.1% SDS solution for the extraction of the stainer from the cells. The optical density was measured at 570 nm on the spectrophotometer Multiscan Plus. The effect was determined by the formula: No/Nk=(Do−D)/(Dk−D) 100%, where Do, Dk, D are optical densities in the experiment, control, and the background one, respectively, and No/Nk is the cell survival rate: the number of the live cells in the experiment in relation to the control.

For a further series, the system named is breast cancer T4cN2M0. Put plainly: clinical case, radiotherapy and CMF polychemotherapy with hexapeptide intranasal spray (Example 8). It counts as in vivo, human. The source says:
Onto the area of the left breast from two tangential opposed fields and with the figured field onto the zones of regional lymph outflow on the left radiotherapy was begun using linear accelerator (LU-20-SL with the deceleration-radiation energy of 6 MeV) in the mode of average dose fractionating, at 3 Gy daily 5 times a week onto the area of the tumour up to the total focal dose (TFD) 45 Gy equivalent to the mode of the conventional fractionation consisting of 2 Gy a day, with TFD 60 Gy, and onto the zones of regional lymph outflow on the left (supraclavicular, subclavicular, axillary and parasternal sites) at a single dose of 3 Gy up to the TFD 33-36 Gy equivalent to 44-48 Gy of the conventional fractionation.
The patient's state after the irradiation course was satisfactory, with the tumour ulceration being at the scarring stage and virtually no discharge. Two weeks later, polychemotherapy was begun according to the CMF regimen carried out for 4 weeks once a week. During 5 days prior to commencing chemotherapy, the person daily received the hexapeptide in the form of an intranasal dosed spray […] at a single dose of 100 μg. The CMF regimen included intravenous drip administration of 1 g of 5-fluorouracil and 40 mg of methotrexate and intramuscular administration of 1 g cyclophosphane. During polychemotherapy, the patients daily received the hexapeptide in the form of an intranasal dosed spray, with the single dose equalling 100 μg.
A repeat course of CMF. The patient received intravenously 40 mg of methotrexate and 1 g of 5-fluorouracil and intramuscularly 1 g of cyclophosphane. The state after polychemotherapy was satisfactory. A cicatrix formed on the site of the previous breast ulceration. Regional lymph nodes were not perceived, the breast was soft to the touch, with no fresh infiltrates. On the mammograms, the tumour node as compared with the findings of mammography obtained at the beginning of treatment had decreased to 5 mm in diameter. Then sequentially a course of polychemotherapy was carried out according to the same regimen and in the same doses. During 5 days prior to commencing chemotherapy, the patient daily received hexapeptide in the form of an intranasal dosed spray 5 times a day at a single does of 100 μg. During polychemotherapy, the patient daily received hexapeptide in the form of an intranasal dosed spray 5 times a day at a single does of 100 μg.

Series [10] has as its system stage III oesophageal cancer. The series is classed as in vivo, human. Here is the method: Clinical diagnosis: stage III oesophageal cancer (T3-4N0-2MOP3). At admission, the patient's general condition of moderate severity. The laboratory indices of the total blood count without pronounced alterations. Noted was a considerable disbalance of the indices of the oxidative-antioxidative system on the background moderate-degree immunosuppression. The state of the oxidative-antioxidative system in the patients was assessed by intensity of lipid peroxidation via measuring blood serum concentration of malonic dialdehyde (MDA, μmol/L) and endogenous antioxidants: lactoferrin (LF, mg/L), caeruloplasmin (CP, conventional units), and the antioxidant enzyme catalase (CAT, conventional units). The analysis of percentage content of the main subpopulations of T-lymphocytes was carried out to superficial receptors of CD3 (T-lymphocytes), CD4 (T-helpers/inducers), CD8 (T-suppressors/cytotoxic lymphocytes), CD16 (natural killers), CD25 (activated lymphocytes expressing the receptor to interleukin-2), CD72 (B-lymphocytes). […] At the same time, the indices of the lymphocytic link were virtually within the normal values. Since CP and LF are proteins of the acute phase of inflammation, an increase in the blood serum reflected the presence of an inflammatory process accompanying the development of oesophageal cancer. Prior to chemoradiotherapy, the patient received intramuscular administration of the hexapeptide daily at a single dose of 1 ml of 0.1% solution 5 times a day for 5 days. Comprehensive chemoradiotherapy was carried out according to the following regimen: 750 mg of 5-fluorouracil (5-FU) was administered intravenously for 5 days (total dose 3,750 mg), two days after the end of administration of 5-FU, the patients was irradiated according to the regimen of dynamic fractionation of the dose at a single dose of 4 Gy on the background of intravenous administration of cysplastin at a dose of 30 mg for 3 days (total dose of cysplastin 90 mg, total focal dose 12 Gy). During the whole period of chemoradiotherapy, the patients was given hexapeptide at a single dose of 100 μg twice daily (in the morning and evening). Commencing from day 11, radiotherapy was continued in the mode of the classical fractionated dose, with the single dose equalling 2 Gy (total focal dose 40 Gy).

In a further series the test system is Hep-2 cells. The series can be described thus: growth of Hep-2 tumour cells (trypan blue count). The note with it: 1 μg/ml, three days. The series is classed as cell-based, human. Here is the method:
Human laryngeal cancer cells Hep-2 in DMEM medium supplemented with 10% foetal calf serum and 40 μg/ml gentamycin were inoculated in 2-ml penicillin-containing vials, 200 thousand per each vial. The hexapeptide at a dose of 1 μg/ml was added 3 hours after cell inoculation (when they had already adhered to glass) and left in the medium for the whole period of incubation. Three days after inoculation, the cells were detached from glass with trypsin, followed by calculating the number of the living cells: unstained with a 0.04% solution of trypan blue.

The subject of series [11] is multidrug resistance-associated transport proteins in Hep-2 cells. The series can be described thus: rhodamine 123 efflux rate from Hep-2 cells.
Procedure: While studying the effect of the inhibitors on the release of Rh123, to the cuvette after several minutes of the normal excretion of the stainer we added the inhibitor in the required concentration. Determining the control and inhibited constants of rhodamine excretion rates on one plate decreases the error of determining their ratio, necessary for obtaining the R value. […] The total amount of rhodamine in the cells was determined by the difference of the fluorescence levels after adding digitonin and before adding cells to the cuvette. The relative amount of Rh123 in the cells (N) was determined according to the following formula: N=1−{It−I0/Imax−I0}, where It, I0, Imax are the values of fluorescence of Rh123 in the medium at the time moments t, 0 and the peak fluorescence after adding digitonin, respectively.
The effect of each concentration of the agents on Rh123 excretion was determined in several experiments.
For the next series, the system named is tumour cells. The note with it: calcium channel blocker; cited from earlier work.

Entries after “also recorded” stand apart in the source; their conditions may differ. Peptide text beside a SMILES is read from it.

T1 sequence (O35379 whole entry): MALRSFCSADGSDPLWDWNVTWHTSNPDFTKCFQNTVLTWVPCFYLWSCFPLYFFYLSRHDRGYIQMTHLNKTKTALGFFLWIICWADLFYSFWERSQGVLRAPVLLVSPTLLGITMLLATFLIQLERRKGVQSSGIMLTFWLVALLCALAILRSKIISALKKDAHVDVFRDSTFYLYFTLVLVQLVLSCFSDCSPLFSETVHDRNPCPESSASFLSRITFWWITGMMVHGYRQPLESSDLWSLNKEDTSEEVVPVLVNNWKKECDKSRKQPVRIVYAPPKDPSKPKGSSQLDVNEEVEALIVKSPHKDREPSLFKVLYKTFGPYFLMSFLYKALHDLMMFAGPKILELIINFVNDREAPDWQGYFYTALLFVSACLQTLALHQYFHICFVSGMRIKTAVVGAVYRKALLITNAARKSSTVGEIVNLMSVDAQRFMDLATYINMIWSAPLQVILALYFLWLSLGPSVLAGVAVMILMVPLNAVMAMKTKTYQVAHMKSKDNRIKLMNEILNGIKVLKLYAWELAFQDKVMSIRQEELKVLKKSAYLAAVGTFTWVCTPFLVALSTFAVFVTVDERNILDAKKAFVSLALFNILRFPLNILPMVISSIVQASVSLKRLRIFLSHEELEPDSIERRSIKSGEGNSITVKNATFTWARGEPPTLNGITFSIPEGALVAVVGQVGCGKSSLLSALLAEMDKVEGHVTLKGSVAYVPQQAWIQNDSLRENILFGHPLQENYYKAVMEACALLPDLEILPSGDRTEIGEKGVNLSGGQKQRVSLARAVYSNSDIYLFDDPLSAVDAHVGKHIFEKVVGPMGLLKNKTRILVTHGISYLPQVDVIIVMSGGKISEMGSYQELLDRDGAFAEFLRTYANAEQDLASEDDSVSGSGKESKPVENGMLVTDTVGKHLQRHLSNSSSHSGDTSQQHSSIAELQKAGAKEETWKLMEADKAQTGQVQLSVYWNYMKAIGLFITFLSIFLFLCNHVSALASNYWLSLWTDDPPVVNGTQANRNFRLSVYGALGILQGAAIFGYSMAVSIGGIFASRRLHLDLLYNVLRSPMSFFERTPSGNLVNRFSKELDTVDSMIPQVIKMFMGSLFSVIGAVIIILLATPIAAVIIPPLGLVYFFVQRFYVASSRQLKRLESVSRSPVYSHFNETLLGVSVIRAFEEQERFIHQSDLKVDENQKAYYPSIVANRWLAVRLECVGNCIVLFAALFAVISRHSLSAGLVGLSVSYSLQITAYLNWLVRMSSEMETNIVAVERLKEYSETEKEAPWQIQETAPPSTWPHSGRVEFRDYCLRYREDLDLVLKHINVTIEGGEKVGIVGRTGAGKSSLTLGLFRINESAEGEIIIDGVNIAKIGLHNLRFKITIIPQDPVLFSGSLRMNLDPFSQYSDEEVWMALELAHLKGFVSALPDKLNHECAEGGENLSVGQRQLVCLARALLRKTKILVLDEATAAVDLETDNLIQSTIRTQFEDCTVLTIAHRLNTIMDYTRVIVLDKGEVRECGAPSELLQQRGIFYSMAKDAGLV
Source text for P-gp: The rate of calcein formation in the dish with calcein AM added without Co2+ ions makes it possible to determine the activity of the transport proteins expelling calcein AM out of cells, rather than that of the proteins capable of transporting calcein from the cells (MRP), since in this case total calcein is registered: both intra- and extracellular.

For `NCCCC[C@H](NC(=O)CNC(=O)[C@H](Cc1c[nH]cn1)NC(=O)[C@@H](N)CCCCN)C(=O)N[C@@H](Cc1c[nH]cn1)C(=O)NCC(=O)O` [hexapeptide, lysyl-histidyl-glycyl-lysyl-histidyl-glycine] (H-KHGKHG-OH), in series [1], the MDR development result was “No events of MDR development were observed”; the “indices of immunity and total blood count after chemoradiotherapy” value was “did not virtually alter”; the tumour outcome is “complete resorption of the tumour”. For the same compound, in series [1] (1 ml of 0.005% solution subcutaneously), the “side reactions during chemoradiotherapy” value is listed as “No pronounced side reactions were observed”. Moreover, in [2] (alcohol), the solubility in alcohol result is listed as “not alcohol- or chloroform-soluble”. In series [2] (chloroform), the solubility in chloroform result was “not alcohol- or chloroform-soluble”. Besides, the “solubility in isotonic sodium chloride solution” value in [2] (isotonic sodium chloride solution) is “readily soluble”. In addition, in series [2] (water), the solubility in water entry was “readily soluble”. Moreover, the mutagenic activity entry in “mutagenic activity” is given as “neither allergic nor mutagenic activity”. Further, the “tumour at check-up examinations” value in series [3] (after polychemotherapy) is “no oesophageal tumour perceived”. In addition, the “metastases into lymph nodes” value in series [3] (histology of subtotal oesophageal resection) is given as “No metastases into lymph nodes were detected”. Also, in series [3] (human, in vivo), the “manifestations of toxicosis during polychemotherapy” value is listed as “No markedly pronounced manifestations of toxicosis were observed”. Besides, the “increase of calcein formation rate” value at MRP [4] is “double”. Besides, the “death of laboratory animals after a single dose” value in [5] is on record as “caused no death”. Moreover, the “toxic reaction and side effects” value in series [6] is recorded as “neither induces a pronounced toxic reaction nor leads to development of side effects”. Further, the “effect on calcein formation rate” value with P-gp is recorded as “does not act upon the calcein formation rate”. Further, the local irritating effect result in “local irritating effect” is reported as “no local irritating effect”. Besides, in [7], the “calcein formation rate increment ratio” value is 2.6. Further, the “increase of rate of calcein formation in cells” value in series [7] (1.2 nM) is listed as “twofold”. For the same compound, the “decrease of calcein excretion rate” value at MRP [8] (1.2 nM) is 1.5 fold. Also, at MRP [8] (120 nM), the “calcein excretion rate inhibition ratio” value is given as 2.6. Also, in [9] (1.2 nM), the “increase in sensitivity of Hep-2 cells to arsenate” value is 3 fold. Also, the “effect on sensitivity to arsenate and survival of Hep-2 cells” value in [9] (50 μM arsenate) is “increases sensitivity of the tumour cells to the cytostatic preparation arsenate and inhibits survival of the Hep-2 cells”. Also, in the series with breast cancer T4cN2M0 (5th course of CMF), the “development of MDR” value is given as “No development of MDR was noted”. For the same compound, the “tumour node diameter on mammograms” value with breast cancer T4cN2M0 (after repeat course of CMF) was 5 mm. In addition, in the series with breast cancer T4cN2M0 (before fourth course of polychemotherapy), the “tumour node size on mammograms” value stood at 3.8 cm. Also, the “relapse or metastases at examination” value in the series with breast cancer T4cN2M0 (clinical and roentgenological study, check-up 15 months after the beginning of treatment) was “no findings suggesting either a breast tumour relapse or metastases; also recorded: no signs of the disease's relapses”. Further, the “tolerance of chemoradiotherapy / polychemotherapy” value in the series on breast cancer T4cN2M0 (intranasal dosed spray, CMF regimen) is on record as “tolerated chemoradiotherapy satisfactorily; also recorded: well tolerated”. Also, the allergic activity entry in “allergic activity” is “neither allergic nor mutagenic activity”. Moreover, in series [10] (12-month follow-up), the disease relapses result is “no disease relapses”. For the same compound, the “indices of natural cellular and T-lymphocytic immunity, acute inflammation phase proteins” value in [10] (human, in vivo) is given as “did not alter substantially”. In series [10] (with chemoradiotherapy), the “symptoms of MDR” value is listed as “No symptoms of MDR were observed” and the tumour outcome is reported as “complete resorption of the tumour”. Moreover, the “effect on growth of Hep-2 tumour cells” value in the series on Hep-2 cells is listed as “virtually does not influence the growth”. Further, in [11], the “optimal concentration of maximal inhibition of Rh123 excretion” value was 1 ng/mL. In addition, the “R value (Rh123 excretion inhibition)” value in series [11] (1 ng/ml) came out at 3.2.
For the compound `COc1ccc(CCN(C)CCCC(C#N)(c2ccc(OC)c(OC)c2)C(C)C)cc1OC` (stereo not shown) [verapamil], in the series with tumour cells, the “dose exhibiting in vitro MDR inhibiting activity” value is recorded as “approximately 10 μM”.
